{
  "source": "patent US20220041665A1",
  "about": "“POLYNUCLEOTIDE AND USES THEREOF” (Helsingin yliopisto, priority 2019, published 2022)",
  "type_in_all_cases": "cell-based, human",
  "key": {"[1]": {"tested_on": "A549 cells with tagged EGFR", "experiment": "EGF uptake in A549 cells with tagged EGFR", "description": "A549 cells were seeded at 0.4×10^5 cells per 4-well for 3 days. Medium was changed to fresh medium with or without 0.5 mM IAA for 1 h. Cells were washed twice with ice-cold serum free medium with 1% BSA and 0.2 ml of 2 μg/ml Alexa Fluor™ 647 EGF complex (ThermoFisher, E35351) in serum free medium with 1% BSA was added. Cells were further incubated at 37° C. for 20 min before harvesting with trypsin. Samples were kept on ice before FACS analysis. Alexa Fluor™ 647 was excited with 640 nm laser and detected with 720/40 detector, analysing 20 000 cells per sample. Negative control samples were cells incubated in medium without EGF complex. Background subtracted mean fluorescence intensity was used for analysis."}, "[2]": {"tested_on": "A431 cells with tagged DHC1", "experiment": "Analysis of cell division in A431 cells with tagged DHC1", "description": "Cells were plated on μ-slide 8-well ibiTreat dishes at 0.1×10^5 cells per well 2 days before the experiment. On the experiment day, cells were loaded with 2 μM CellTracker™ Red CMTPX (Thermo, CAT #C34552) in complete medium for 15-30 min at 37° C. Medium was then changed to FluroBrite containing 10% FBS and incubated at 37° C. for 1-2 h before imaging to equilibrate the labelling. Cells were imaged with Nikon Eclipse Ti-E microscope equipped with 20× air objective, Nikon Perfect Focus System 3, Hamamatsu Flash 4.0 V2 scientific CMOS and Okolab stage top incubator system. Before recording, 6 fields for each of the 8 wells were selected with Celllracker™ Red fluorescence. IAA was then added at a final 0.5 mM concentration to IAA-treated cells, mixed well with pipetting, and time lapse imaging started immediately recording every 30 min for 16 h. Mitotic rounding cells were counted manually in the videos from 0.5 h to 6 h. Mitotic rounding cells without cell division were followed till 13 h."}, "[3]": {"tested_on": "seipin-mEGFP", "experiment": "FACS screen of auxin perceptive proteins and degrons (mean GFP intensity) in A431 cell pools", "conditions": "cells expressing AtAFB2 and seipin-mEGFP with degron insertion; 0 h, 1 h, 16 h IAA", "description": "To search for an improved AID system to solve the issue, a pipeline was first established in human A431 cells to screen AID components (FIG. 2A). Various auxin perceptive proteins and degrons were selected for screening. Several TIR1 and AFB2 proteins from different plant species were tested, as well as degrons derived from AtIAA17 (SEQ ID NO: 3), these including amino acid (aa.) 65-132 (miniAID), aa. 62-109, aa. 71-114. All these degrons were included in the screen. […] These high affinity fragments were tested, assuming higher affinity might translate into more efficient inducible degradation. Degrons with KR dipeptide deletions were tested to see if they would have an effect on enhancing IAA binding affinity, IAA-inducible depletion or as part of a nuclear localization signal. […]\nFor FACS analysis, cells were seeded at 1:5 (for A431) or 1:3 (for A549) into 6-well plate in medium without selection on day 0. […] Cells were gated with SSC, FSC and trigger pulse width for singlets and 100 000 cells were analyzed for each sample. GFP was excited with 488 nm laser and detected with 530/40 detector; mCherry was excited with 561 nm lasers and detected with 615/20 detector. Data was analyzed with BD FACS Sortware. Background subtracted mean fluorescence intensity was used for analysis."}, "[4]": {"tested_on": "seipin", "sequence (Q96G97+P93830 fused)": "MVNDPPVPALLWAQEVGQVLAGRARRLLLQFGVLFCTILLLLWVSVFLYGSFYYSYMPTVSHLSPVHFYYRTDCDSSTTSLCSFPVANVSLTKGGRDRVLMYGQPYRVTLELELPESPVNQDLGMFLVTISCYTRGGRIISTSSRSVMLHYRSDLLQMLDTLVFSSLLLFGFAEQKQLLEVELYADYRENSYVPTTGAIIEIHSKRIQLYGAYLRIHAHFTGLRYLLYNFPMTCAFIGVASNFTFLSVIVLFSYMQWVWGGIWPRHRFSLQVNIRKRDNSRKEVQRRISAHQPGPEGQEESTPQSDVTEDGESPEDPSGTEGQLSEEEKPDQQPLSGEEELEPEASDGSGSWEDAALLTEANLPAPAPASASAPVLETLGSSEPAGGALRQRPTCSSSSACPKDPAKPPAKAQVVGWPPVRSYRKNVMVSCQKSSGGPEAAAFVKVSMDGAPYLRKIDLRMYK", "experiment": "Depletion of endogenous seipin tagged with mAID-mEGFP in A431 cells expressing OsTIR1", "conditions": "cells expressing OsTIR1, no IAA", "text": "Initially seipin, a conserved transmembrane protein in the endoplasmic reticulum (ER) involved in lipid droplet (LD) biogenesis, was targeted for degradation. To rapidly deplete seipin from human A431 cells, an AID system, composed of TIR1 derived from Oryza sativa (OsTIR1) and mAID degron of 65 amino acids corresponding to AAs 68-132 of AtIAA17 (SEQ ID NO: 3), referred herein to as miniAID, was first employed. To this end, the endogenous seipin was homozygously tagged with mAID-mEGFP."}, "[5]": {"conditions": "control cells without auxin perceptive protein"}},
  "data": [
    {"compound": "O=C(O)Cc1c[nH]c2ccccc12", "note": "[IAA, indole-3-acetic acid]", "values": [
      {"measurement": "reduction of EGF uptake", "setting": "[1]; EGFR-AtAFB2 cells, 1 h IAA treatment (0.5 mM)", "result": 75, "unit": "%"},
      {"measurement": "effect of IAA per se on EGF uptake", "setting": "[1]; [5]", "result": "did not affect"},
      {"measurement": "fraction of mitotic rounding cells that completed cell division", "setting": "[2]; DHC1-AtAFB2 cells, after IAA addition for 30 min (0.5 mM)", "result": 0, "unit": "%"},
      {"measurement": "effect of IAA per se on cell division", "setting": "[2]; [5]", "result": "did not affect"}
    ]},
    {"compound": "aa.82-101: minimal truncated AtIAA7 degron, aa. 82-101 of SEQ ID NO: 1 (QVVGWPPVRNYRKNMMTQQK; listed as Arabidopsis thaliana)", "values": [
      {"measurement": "auxin-inducible degradation of truncated AtIAA7 degron", "setting": "[3]", "result": "similarly to miniIAA7"}
    ]},
    {"compound": "miniAID: mAID degron of 65 amino acids corresponding to AAs 68-132 of AtIAA17 (SEQ ID NO: 3)", "values": [
      {"measurement": "degradation of tagged seipin without IAA addition", "setting": "[4]", "result": "severely degraded"}
    ]}
  ]
}
